Structures can show the parent of a compound that is named as a salt.
Assays:
[1] = test system: RS4; 11 leukaemia cell line; assay: In vitro cytotoxicity, Microculture Tetrazolium Assay (MTT); format: cell-based; conditions: Homo sapiens, 11 cells exposed for 48 hours
Method: The cytotoxicity studies were carried out on the RS4; 11 leukaemia cell line and on H146 small Cell Lung Carcinoma cell line. The cells are distributed onto microplates and exposed to the test compounds for 48 hours. The cell viability is then quantified by a colorimetric assay, the Microculture Tetrazolium Assay (Cancer Res., 1987, 47, 939-942).

[2] = target: Bcl-2 protein (histag-Bcl-2, UniProtKB P10415) (Homo sapiens (Human), UniProt P10415); assay: Inhibition of Bcl-2 by the fluorescence polarisation technique; format: binding; conditions: fluorescence polarisation test; incubation for 2 hours; read-out: IC50 (nM) Bcl-2 FP
Chain of Bcl-2 protein (P10415 whole entry): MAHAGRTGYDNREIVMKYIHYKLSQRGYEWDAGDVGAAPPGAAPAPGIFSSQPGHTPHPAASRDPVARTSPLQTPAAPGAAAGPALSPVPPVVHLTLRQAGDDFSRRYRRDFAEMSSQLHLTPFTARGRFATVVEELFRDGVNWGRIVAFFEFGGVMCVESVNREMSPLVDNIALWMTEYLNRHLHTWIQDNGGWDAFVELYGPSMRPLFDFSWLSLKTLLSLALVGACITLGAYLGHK
Description: For partial inhibitors, the percentage fluorescence polarisation inhibition for a given concentration of the test compound is indicated.

Row | IC50 [2] | SMILES | IC50 [1]
1 | 8.6 nM | C[C@@H]1Cc2ccccc2CN1C(=O)c1cc2c(cc1-c1cc(C(=O)N(C)c3ccc(O)cc3)c3n1CCCC3)CCN(C(=O)C1(c3ccccc3)CC1)C2 [Example 109, N-(4-Hydroxyphenyl)-N-methyl-3-{7-[(3R)-3-methyl-1,2,3,4-tetrahydroisoquinoline-2-carbonyl]-2-(1-phenylcyclopropanecarbonyl)-1,2,3,4-tetrahydroisoquinolin-6-yl}-5,6,7,8-tetrahydroindolizine-1-carboxamide] | 89 nM
2 | 14 nM | CN(C(=O)c1cc(-c2cc3c(cc2C(=O)N2Cc4ccccc4C[C@H]2CN2CCOCC2)CN(S(=O)(=O)CCc2ccccc2)C3)n2c1CCCC2)c1ccc(O)cc1 [Example 21, N-(4-Hydroxyphenyl)-N-methyl-3-{6-[(3S)-3-(morpholin-4-ylmethyl)-1,2,3,4-tetrahydroisoquinoline-2-carbonyl]-2-(2-phenylethanesulfonyl)-2,3-dihydro-1H-isoindol-5-yl}-5,6,7,8-tetrahydroindolizine-1-carboxamide hydrochloride] | 112 nM
3 | 33 nM | CCCCN(CCCC)C(=O)c1cc(-c2cc3c(cc2C(=O)N2CCc4ccccc4C2)CN(C(=O)Cc2ccccc2)CC3)n(C)c1C [Example 162, N,N-Dibutyl-1,2-dimethyl-5-[2-(2-phenylacetyl)-7-(1,2,3,4-tetrahydroisoquinoline-2-carbonyl)-1,2,3,4-tetrahydroisoquinolin-6-yl]-1H-pyrrole-3-carboxamide] | > 150 nM
4 | 5.3 nM | Cc1c(C(=O)N(C)c2ccc(O)cc2)cc(-c2cc3c(cc2C(=O)N2Cc4ccccc4C[C@H]2C)CN(C(=O)CC2CCCCC2)CC3)n1C [Example 795, 5-[2-(2-Cyclohexylacetyl)-7-[(3R)-3-methyl-1,2,3,4-tetrahydroisoquinoline-2-carbonyl]-1,2,3,4-tetrahydroisoquinolin-6-yl]-N-(4-hydroxyphenyl)-N,1,2-trimethyl-1H-pyrrole-3-carboxamide] | 32 nM
5 | 9 nM | CN(C(=O)c1cc(-c2cc3c(cc2C(=O)N2Cc4ccccc4C[C@H]2CN2CCOCC2)CN(C(=O)CCc2ccccc2)C3)n2c1CCCC2)c1ccc(O)cc1 [Example 9, N-(4-Hydroxyphenyl)-N-methyl-3-{6-[(3S)-3-(morpholin-4-ylmethyl)-1,2,3,4-tetrahydroisoquinoline-2-carbonyl]-2-(3-phenylpropanoyl)-2,3-dihydro-1H-isoindol-5-yl}-5,6,7,8-tetrahydroindolizine-1-carboxamide hydrochloride] | 125 nM
6 | 8.4 nM | Cc1c(C(=O)N(C)c2ccccc2)cc(-c2cc3c(cc2C(=O)N2Cc4ccccc4C[C@H]2C)CN(C(=O)Oc2ccc(C#N)cc2)CC3)n1C [Example 786, 4-Cyanophenyl 6-{1,5-dimethyl-4-[methyl(phenyl)carbamoyl]-1H-pyrrol-2-yl}-7-[(3R)-3-methyl-1,2,3,4-tetrahydroisoquinoline-2-carbonyl]-1,2,3,4-tetrahydroisoquinoline-2-carboxylate] | 24 nM
7 | 4.3 nM | C[C@@H]1Cc2ccccc2CN1C(=O)c1cc2c(cc1-c1cc(C(=O)N(c3ccccc3)c3ccc(O)cc3)c3n1CCCC3)CCN(C(=O)Cc1ccccc1)C2 [Example 134, N-(4-hydroxyphenyl)-3-{7-[(3R)-3-methyl-1,2,3,4-tetrahydroisoquinoline-2-carbonyl]-2-(2-phenylacetyl)-1,2,3,4-tetrahydroisoquinolin-6-yl}-N-phenyl-5,6,7,8-tetrahydroindolizine-1-carboxamide] | 2 nM
8 | 2.9 nM | Cc1c(C(=O)N(C)c2ccc(O)cc2)cc(-c2cc3c(cc2C(=O)N2Cc4ccccc4C[C@H]2C)CN(C(=O)Oc2ccccc2)CC3)n1C [Example 68, Phenyl 6-{4-[(4-hydroxyphenyl)(methyl)carbamoyl]-1,5-dimethyl-1H-pyrrol-2-yl}-7-[(3R)-3-methyl-1,2,3,4-tetrahydroisoquinoline-2-carbonyl]-1,2,3,4-tetrahydroisoquinoline-2-carboxylate] | 1.8 nM
9 | 5.5 nM | COc1ccc(CC(=O)N2Cc3cc(C(=O)N4Cc5ccccc5C[C@H]4C)c(-c4cc(C(=O)N(C)c5ccc(O)cc5)c5n4CCCC5)cc3C2)cc1 [Example 51, N-(4-Hydroxyphenyl)-3-{2-[2-(4-methoxyphenyl)acetyl]-6-[(3R)-3-methyl-1,2,3,4-tetrahydroisoquinoline-2-carbonyl]-2,3-dihydro-1H-isoindol-5-yl}-N-methyl-5,6,7,8-tetrahydroindolizine-1-carboxamide] | 23 nM
10 | 4.6 nM | Cc1c(C(=O)N(C)c2ccc(O)cc2)cc(-c2cc3c(cc2C(=O)N2Cc4ccccc4C[C@H]2C)CN(C(=O)NC2CCCCC2)CC3)n1C [Example 792, N-Cyclohexyl-6-{4-[(4-hydroxyphenyl)(methyl)carbamoyl]-1,5-dimethyl-1H-pyrrol-2-yl}-7-[(3R)-3-methyl-1,2,3,4-tetrahydroisoquinoline-2-carbonyl]-1,2,3,4-tetrahydroisoquinoline-2-carboxamide] | 21 nM
11 | 5.3 nM | Cc1c(C(=O)N(C)c2ccc(O)cc2)cc(-c2cc3c(cc2C(=O)N2Cc4ccccc4C[C@H]2C)CN(C(=O)Oc2ccc(F)cc2)C3)n1C [Example 106, 4-Fluorophenyl 5-{4-[(4-hydroxyphenyl)(methyl)carbamoyl]-1,5-dimethyl-1H-pyrrol-2-yl}-6-[(3R)-3-methyl-1,2,3,4-tetrahydroisoquinoline-2-carbonyl]-2,3-dihydro-1H-isoindole-2-carboxylate] | 38 nM
12 | 27 nM | C[C@@H]1Cc2ccccc2CN1C(=O)c1cc2c(cc1-c1cc(C(=O)N(C)c3ccc(O)cc3)c3n1CCCC3)CN(C(=O)OCc1cnc3[nH]ccc3c1)C2 [Example 64, 1H-pyrrolo[2,3-b]pyridin-5-ylmethyl 5-{1-[(4-hydroxyphenyl)(methyl)carbamoyl]-5,6,7,8-tetrahydroindolizin-3-yl}-6-[(3R)-3-methyl-1,2,3,4-tetrahydroisoquinoline-2-carbonyl]-2,3-dihydro-1H-isoindole-2-carboxylate] | 204 nM
13 | 21 nM | Cc1c(C(=O)N(C)c2ccc(O)cc2)cc(-c2cc3c(cc2C(=O)N2Cc4ccccc4C[C@H]2CN2CCOCC2)CN(C(=O)O[C@@H]2C[C@H](C)CC[C@H]2C(C)C)CC3)n1C [Example 797, (1R,2S,5R)-5-Methyl-2-(propan-2-yl)cyclohexyl 6-{4-[(4-hydroxyphenyl)(methyl)carbamoyl]-1,5-dimethyl-1H-pyrrol-2-yl}-7-[(3S)-3-(morpholin-4-ylmethyl)-1,2,3,4-tetrahydroisoquinoline-2-carbonyl]-1,2,3,4-tetrahydroisoquinoline-2-carboxylate] | 125 nM

Row | SMILES | IC50 [2] | IC50 [1]
14 | CN(C(=O)c1cc(-c2cc3c(cc2C(=O)N2Cc4ccccc4C[C@H]2CN2CCOCC2)CN(C(=O)Oc2ccc(Cl)cc2)CC3)n2c1CCCC2)c1ccc(O)cc1 [Example 122, 4-Chlorophenyl 6-{1-[(4-hydroxyphenyl)(methyl)carbamoyl]-5,6,7,8-tetrahydroindolizin-3-yl}-7-[(3S)-3-(morpholin-4-ylmethyl)-1,2,3,4-tetrahydroisoquinoline-2-carbonyl]-1,2,3,4-tetrahydroisoquinoline-2-carboxylate] | 2.6 nM | 5.4 nM
15 | C[C@@H]1Cc2ccccc2CN1C(=O)c1cc2c(cc1-c1cc(C(=O)N(C)c3ccc(O)cc3)c3n1CCCC3)CCN(C(=O)Oc1ccc(NCCN(C)C)cc1)C2 [Example 153, 4-{[2-(Dimethylamino)ethyl]amino}phenyl 6-{1-[(4-hydroxyphenyl)(methyl)carbamoyl]-5,6,7,8-tetrahydroindolizin-3-yl}-7-[(3R)-3-methyl-1,2,3,4-tetrahydroisoquinoline-2-carbonyl]-1,2,3,4-tetrahydroisoquinoline-2-carboxylate] | 4.2 nM | 3.6 nM
16 | COc1ccccc1OC(=O)N1CCc2cc(-c3cc(C(=O)N(C)c4ccc(O)cc4)c4n3CCCC4)c(C(=O)N3Cc4ccccc4C[C@H]3CN3CCOCC3)cc2C1 [Example 128, 2-Methoxyphenyl 6-{1-[(4-hydroxyphenyl)(methyl)carbamoyl]-5,6,7,8-tetrahydroindolizin-3-yl}-7-[(3S)-3-(morpholin-4-ylmethyl)-1,2,3,4-tetrahydroisoquinoline-2-carbonyl]-1,2,3,4-tetrahydroisoquinoline-2-carboxylate] | 3.5 nM | 8.2 nM
17 | CN(C(=O)c1cc(-c2cc3c(cc2C(=O)N2Cc4ccccc4C[C@H]2CN2CCOCC2)CN(C(=O)Oc2ccc(F)cc2)CC3)n2c1CCCC2)c1ccc(O)cc1 [Example 120, 4-Fluorophenyl 6-{1-[(4-hydroxyphenyl)(methyl)carbamoyl]-5,6,7,8-tetrahydroindolizin-3-yl}-7-[(3S)-3-(morpholin-4-ylmethyl)-1,2,3,4-tetrahydroisoquinoline-2-carbonyl]-1,2,3,4-tetrahydroisoquinoline-2-carboxylate] | 2.5 nM | 8.2 nM
18 | Cc1c(C(=O)N(C)c2ccc(O)cc2)cc(-c2cc3c(cc2C(=O)N2Cc4ccccc4C[C@H]2CN(C)C)CN(C(=O)Oc2ccccc2)CC3)n1C [Example 211, Phenyl 7-[(3S)-3-[(dimethylamino)methyl]-1,2,3,4-tetrahydroisoquinoline-2-carbonyl]-6-{4-[(4-hydroxyphenyl)(methyl)carbamoyl]-1,5-dimethyl-1H-pyrrol-2-yl}-1,2,3,4-tetrahydroisoquinoline-2-carboxylate] | 3.4 nM | 6.9 nM
